# According to patent EP2140864A2 (H. Lundbeck A/S, priority 2001, dated 2002):
# Marks after values point to notes of the source that are not given here.
# How the values were obtained:
# [1] = tested on: Male albino Sprague-Dawley rats; test: Rat Social Interaction Test (SIT); type: in vivo
# Protocol: Rats were allowed to acclimate to the animal care facility for 5 days and were housed singly for 5 days prior to testing. Animals were handled for 5 minutes per day. The design and procedure for the Social Interaction Test was carried out as previously described by Kennett, et al. (1997). On the test day, weight matched pairs of rats (± 5%), unfamiliar to each other, were given identical treatments and returned to their home cages. Animals were randomly divided into 5 treatment groups, with 5 pairs per group, and were given one of the following i.p. treatments: Example 92 (10, 30 or 100 mg/kg), vehicle (1 ml/kg) or chlordiazepoxide (5 mg/kg). Dosing was 1 hour prior to testing. Rats were subsequently placed in a white perspex test box or arena (54 x 37 x 26 cm), whose floor was divided up into 24 equal squares, for 15 minutes. An air conditioner was used to generate background noise and to keep the room at approximately 74°F. All sessions were videotaped using a JVC camcorder (model GR-SZ1, Elmwood Park, NJ) with either TDK (HG ultimate brand) or Sony 30 minute videocassettes. All sessions were conducted between 1:00 - 4:30 P.M. Active social interaction, defined as grooming, sniffing, biting, boxing, wrestling, following and crawling over or under, was scored using a stopwatch (Sportsline model no. 226, 1/100 sec. discriminability). The number of episodes of rearing (animal completely raises up its body on its hind limbs), grooming (licking, biting, scratching of body), and face washing (i.e. hands are moved repeatedly over face), and number of squares crossed were scored. Passive social interaction (animals are lying beside or on top of each other) was not scored. All behaviors were assessed later by an observer who was blind as to the treatment of each pair. At the end of each test, the box was thoroughly wiped with moistened paper towels.
# Male albino Sprague-Dawley rats (Taconic Farms, NY) were housed in pairs under a 12 hr light dark cycle (lights on at 0700 hrs.) with free access to food and water.
# Example 92 was dissolved in 100% DMSO (Sigma Chemical Co., St. Louis, MO). Chlordiazepoxide (purchased from Sigma Chemical Co., St. Louis, MO) was dissolved in double distilled water. The vehicle consisted of 50% DMSO (v/v). All drug solutions were made up 10 minutes prior to injection and the solutions were discarded.
# Example 34 was dissolved in 5% lactic acid, v/v. The vehicle consisted of 100% dimethylacetamide (DMA) and this was used to make up all drug solutions. All drug solutions were made up fresh each day and any unused solutions were discarded at the end of the test day. The volume of drug solution administered was 1 ml/kg.
# The social interaction data (time interacting, rearing and squares crossed) were subjected to a randomized, one-way ANOVA and post hoc tests conducted using the Student-Newman-Keuls test. The data were subjected to a test of normality (Shapiro-Wilk test). The data were analyzed using the GBSTAT program, version 6.5 (Dynamics Microsystems, Inc., Silver Spring, MD, 1997). All data are presented as means ± S.E.M.
# [2] = tested on: Male albino Sprague-Dawley rats; test: Rat Social Interaction Test (SIT); type: in vivo; details: for Social Interaction: unfamiliar cage mates in a familiar arena
# [3] = molecular target: T1, human histamine H1 receptor (Homo sapiens, UniProt P35367); test: Radioligand binding, histamine H1 receptor; details: for selectivity ratio hH1: Table 10, Ki hH1 divided by Ki hGAL3
# T1 construct: expressed in transfected cells
# T1 sequence (P35367 whole entry): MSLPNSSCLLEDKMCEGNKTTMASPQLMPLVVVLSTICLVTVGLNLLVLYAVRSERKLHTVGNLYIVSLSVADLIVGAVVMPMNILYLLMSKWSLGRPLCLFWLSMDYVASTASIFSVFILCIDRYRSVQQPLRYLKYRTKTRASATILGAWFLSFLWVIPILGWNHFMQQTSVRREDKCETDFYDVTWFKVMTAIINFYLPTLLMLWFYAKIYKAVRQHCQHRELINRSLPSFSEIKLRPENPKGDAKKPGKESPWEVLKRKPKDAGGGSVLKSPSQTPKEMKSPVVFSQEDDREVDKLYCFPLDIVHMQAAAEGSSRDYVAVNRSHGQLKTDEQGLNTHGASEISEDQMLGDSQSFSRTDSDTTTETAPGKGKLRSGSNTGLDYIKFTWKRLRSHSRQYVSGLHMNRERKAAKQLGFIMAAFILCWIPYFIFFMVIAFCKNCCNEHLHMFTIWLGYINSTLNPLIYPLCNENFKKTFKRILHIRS
# Source text: Other receptors: Cell membranes expressing human dopamine D1, D2, D4 and rat D3 receptors were purchased through BioSignal, Inc. (Montreal, Canada). Binding assays using the histamine H1 receptor; dopamine receptors; and α1A, α1E, and α2 adrenergic receptors may be carried out according to the procedures described in U.S. Patent No. 5,780,485, the disclosure of which is hereby incorporated by reference in its entirety into this application. Binding assays using the dopamine D5 receptor may be carried out according to the procedures described in U.S. Patent No. 5,882,855, the disclosure of which is hereby incorporated by reference in its entirety into this application. Binding assays for the human α1D adrenergic receptor may be carried out according to the procedures described in U.S. Patent No. 6,156,518, the disclosure of which is hereby incorporated by reference in its entirety into this application.
# Binding data were analyzed using nonlinear regression and statistical techniques available in the GraphPAD Prism package (San Diego, CA). Enzymatic assay data were derived from a standard curve of reference compound data.
# [4] = 0.03 mg/kg p.o., one hour before test
# [5] = 0.1 mg/kg p.o., one hour before test
# [6] = 0.3 mg/kg p.o., one hour before test
# [7] = 1 mg/kg p.o., one hour before test
# [8] = 10 mg/kg i.p., 1 hour prior to testing
# [9] = 100 mg/kg i.p., 1 hour prior to testing
# [10] = 30 mg/kg i.p., 1 hour prior to testing
compound,measurement,setting,value
Cc1ccc(Nc2cc(N3CCCCC3)nc(N3CCN(c4ncccc4C(F)(F)F)CC3)n2)cc1 [Example 34],anxiolytic profile in the Social Interaction Test (conclusion),[1]; overall conclusion of the study,produces an anxioltyic action
same,Grooming bouts,[2]; [4],4.0 ± 0.4^&
same,Rearing,[2]; [4],27 ± 3
same,Squares Crossed,[2]; [4],312 ± 23
same,Social Interaction,[2]; [4],62 ± 11 s
same,Grooming bouts,[2]; [5],7.6 ± 0.5^+
same,Rearing,[2]; [5],40 ± 5
same,Squares Crossed,[2]; [5],295 ± 40
same,Social Interaction,[2]; [5],66 ± 7 s
same,Grooming bouts,[2]; [6],7.2 ± 1.1
same,Rearing,[2]; [6],27 ± 2^S
same,Squares Crossed,[2]; [6],363 ± 17
same,Social Interaction,[2]; [6],53 ± 6 s
same,Grooming bouts,[2]; [7],7.3 ± 0.8
same,Rearing,[2]; [7],40 ± 1
same,Squares Crossed,[2]; [7],343 ± 15^@
same,Social Interaction,[2]; [7],69 ± 6 s
same,increase in the duration of social interaction compared to vehicle,"[2]; 0.03, 0.1, 0.3 or 1 mg/kg p.o., single administration",2-2.6 fold
CN(C)c1cc(Nc2ccc(Cl)c(Cl)c2)nc(Nc2ccccc2)n1 [Example 60],Ki,"[3]; Table 9, read-out: hH1 Ki",39.9 µM
same,selectivity ratio hH1,[3],>100
"O=C1C(=Nc2cccc(C(F)(F)F)c2)c2ccccc2N1c1ccccc1 [Example 92, 1-PHENYL-3- [[3-(TRIFLUOROMETHYL)PHENYL]IMINO]-1,3-DIHYDRO-2H-INDOL-2-ONE]",Squares Crossed,[1]; [8],298 ± 40
same,Grooming bouts,[1]; [9],6.8 ± 1.3
same,Rearings,[1]; [9],31 ± 4
same,selectivity ratio hH1,[3],>100
same,Grooming bouts,[2]; [8],6.1 ± 0.5
same,Rearings,[2]; [8],47 ± 8^a
same,Grooming bouts,[2]; [10],6.2 ± 0.7
same,Rearings,[2]; [10],45 ± 5^b
same,Squares Crossed,[2]; [10],368 ± 36
same,Squares Crossed,[2]; [9],195 ± 19^c
